In patent US8497245B2, “Trypsin-like serine protease inhibitors, their preparation and use as selective inhibitors of the clotting factors IIa and Xa” (The Medicines Company (Leipzig) GmbH, priority 2010, dated 2013):

target: T1, Human plasma kallikrein (h PK) (Homo sapiens, UniProt P03952); assay: Inhibition of human plasma kallikrein (reference enzyme); type: biochemical; settings: S2302 substrate
T1 construct: purchased Enzyme Research Laboratories
Method: (§1) The inhibitory effect against the individual purified enzymes was determined in analogy to a previously disclosed method (Stürzebecher et al., J. Med. Chem., 40, 3091-3099 (1997)).
(§2) The release of p-nitroaniline (p-NA, the chromogenic product of the proteolytic activity), was determined by change in absorbance at 405 nm. The equilibrium rates were used to calculate the inhibitor/enzyme dissociation constant (Ki values) by parameter fitting in accordance with the rate equation for competitive inhibition using GraFit (version 4 from Erithacus). The results are reported as Ki values (nanomolar) in table 7 and are the average of at least three determinations.
(§3) Dissociation constants were calculated as described herein.

T1 sequence (P03952 391-638 limits assumed): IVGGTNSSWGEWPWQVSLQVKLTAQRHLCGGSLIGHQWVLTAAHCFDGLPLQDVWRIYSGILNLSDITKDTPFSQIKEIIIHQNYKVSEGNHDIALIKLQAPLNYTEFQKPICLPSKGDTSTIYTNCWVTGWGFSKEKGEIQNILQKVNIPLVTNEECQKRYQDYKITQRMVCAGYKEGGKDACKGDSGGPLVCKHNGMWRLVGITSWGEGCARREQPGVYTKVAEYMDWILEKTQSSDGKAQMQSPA
T1 sequence (P03952 20-390 partner limits assumed): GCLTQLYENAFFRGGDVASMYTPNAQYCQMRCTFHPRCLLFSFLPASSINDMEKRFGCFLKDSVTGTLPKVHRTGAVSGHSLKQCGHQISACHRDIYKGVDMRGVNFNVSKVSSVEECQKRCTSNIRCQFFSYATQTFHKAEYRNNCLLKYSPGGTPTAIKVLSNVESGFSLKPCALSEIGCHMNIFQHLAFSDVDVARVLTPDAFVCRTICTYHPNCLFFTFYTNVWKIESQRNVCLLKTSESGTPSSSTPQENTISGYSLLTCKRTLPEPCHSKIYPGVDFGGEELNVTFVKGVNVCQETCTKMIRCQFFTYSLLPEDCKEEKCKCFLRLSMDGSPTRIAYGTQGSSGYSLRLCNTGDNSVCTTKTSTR

Ki | SMILES
0.39 µM | N[C@H]1C[C@@H](C(=O)NCc2cc(Cl)ccc2-n2cnnn2)N(C(=O)[C@@H](CCC(=O)N2CCOCC2)NS(=O)(=O)Cc2ccccc2)C1 [Compound 2.23]
4.53 µM | NCc1ccc(Cl)cc1CNC(=O)[C@@H]1CCCCN1C(=O)[C@@H](CC(=O)N1CCOCC1)NS(=O)(=O)Cc1ccccc1 [Compound 2.14]

target: T2, Human tissue-type plasminogen activator (h t-PA) (Homo sapiens, UniProt P00750); assay: Inhibition of human tissue-type plasminogen activator (reference enzyme); type: biochemical; settings: Pefachrome tPA substrate; read-out: Ki h t-PA
T2 construct: purchased Boehringer Ingelheim Actilyse
T2 sequence (P00750 36-562): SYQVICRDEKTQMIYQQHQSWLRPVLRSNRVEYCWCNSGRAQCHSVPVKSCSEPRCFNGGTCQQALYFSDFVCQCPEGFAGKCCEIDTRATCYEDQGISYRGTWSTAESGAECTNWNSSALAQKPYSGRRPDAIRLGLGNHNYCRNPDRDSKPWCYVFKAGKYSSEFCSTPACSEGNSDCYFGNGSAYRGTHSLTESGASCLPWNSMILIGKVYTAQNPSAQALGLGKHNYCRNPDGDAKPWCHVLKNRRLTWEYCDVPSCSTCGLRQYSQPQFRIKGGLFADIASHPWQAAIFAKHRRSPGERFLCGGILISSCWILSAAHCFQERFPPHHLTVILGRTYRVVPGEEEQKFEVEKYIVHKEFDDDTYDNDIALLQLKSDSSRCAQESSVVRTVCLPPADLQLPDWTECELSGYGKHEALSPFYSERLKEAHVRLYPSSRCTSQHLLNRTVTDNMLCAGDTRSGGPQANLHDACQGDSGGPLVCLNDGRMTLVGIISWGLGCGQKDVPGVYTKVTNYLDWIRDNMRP
Method: The equilibrium rates were used to calculate the inhibitor/enzyme dissociation constant (Ki values) by parameter fitting in accordance with the rate equation for competitive inhibition using GraFit (version 4 from Erithacus).
as §3

Ki | SMILES
4.8 µM | N[C@H]1C[C@@H](C(=O)NCc2cc(Cl)ccc2-n2cnnn2)N(C(=O)[C@@H](CCC(=O)N2CCOCC2)NS(=O)(=O)Cc2ccccc2)C1 [Compound 2.23]
> 50 µM | NCc1ccc(Cl)cc1CNC(=O)[C@@H]1CCCCN1C(=O)[C@@H](CC(=O)N1CCOCC1)NS(=O)(=O)Cc1ccccc1 [Compound 2.14]

target: T3, Human plasmin (h plasmin) (Homo sapiens, UniProt P00747); assay: Inhibition of human plasmin (reference enzyme); type: biochemical; settings: Chromozym PL substrate
T3 construct: purchased Calbiochem
T3 sequence (P00747 581-810 limits assumed): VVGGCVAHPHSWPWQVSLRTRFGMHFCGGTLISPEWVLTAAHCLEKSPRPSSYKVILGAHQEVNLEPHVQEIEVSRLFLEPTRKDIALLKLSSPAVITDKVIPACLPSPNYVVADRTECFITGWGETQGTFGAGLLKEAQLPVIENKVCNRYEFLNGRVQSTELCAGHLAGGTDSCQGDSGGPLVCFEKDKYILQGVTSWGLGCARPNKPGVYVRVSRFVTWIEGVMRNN
T3 sequence (P00747 97-580 partner limits assumed): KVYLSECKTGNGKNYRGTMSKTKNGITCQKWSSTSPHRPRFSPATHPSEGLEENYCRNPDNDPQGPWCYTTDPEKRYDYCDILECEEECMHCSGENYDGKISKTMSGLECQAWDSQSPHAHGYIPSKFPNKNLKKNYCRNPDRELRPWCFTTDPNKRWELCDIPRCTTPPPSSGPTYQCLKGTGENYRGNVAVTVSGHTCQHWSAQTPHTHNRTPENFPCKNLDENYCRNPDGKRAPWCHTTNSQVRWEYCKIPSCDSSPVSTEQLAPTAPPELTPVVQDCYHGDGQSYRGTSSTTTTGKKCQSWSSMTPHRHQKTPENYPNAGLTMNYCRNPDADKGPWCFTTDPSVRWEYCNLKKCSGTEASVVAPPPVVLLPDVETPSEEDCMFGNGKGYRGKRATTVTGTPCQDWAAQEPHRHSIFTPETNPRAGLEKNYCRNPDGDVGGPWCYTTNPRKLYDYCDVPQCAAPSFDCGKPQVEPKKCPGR
Method: as §1, §2, §3

Ki | SMILES
1.99 µM | N[C@H]1C[C@@H](C(=O)NCc2cc(Cl)ccc2-n2cnnn2)N(C(=O)[C@@H](CCC(=O)N2CCOCC2)NS(=O)(=O)Cc2ccccc2)C1 [Compound 2.23]
> 50 µM | NCc1ccc(Cl)cc1CNC(=O)[C@@H]1CCCCN1C(=O)[C@@H](CC(=O)N1CCOCC1)NS(=O)(=O)Cc1ccccc1 [Compound 2.14]

target: T4, human factor IIa (human alpha-thrombin) (Homo sapiens, UniProt P00734); assay: Inhibition constants for human factor IIa, chromogenic substrate assay; type: biochemical; settings: 25° C., Pefachrome tPA substrate, average of at least three determinations; read-out: Ki h FIIa
T4 construct: human alpha-thrombin from Enzyme Research Laboratories; purchased Enzyme Research Laboratories
Method: as §1
(§4) 200 μL of TBS (0.05 M trishydroxymethylaminomethane; 0.154 M NaCl, 2% ethanol, pH 8.0)
as §2

Ki | SMILES
0.0067 µM | N[C@H]1C[C@@H](C(=O)NCc2cc(Cl)ccc2-n2cnnn2)N(C(=O)[C@@H](CCC(=O)N2CCOCC2)NS(=O)(=O)Cc2ccccc2)C1 [Compound 2.23]
0.0003 µM | NCc1ccc(Cl)cc1CNC(=O)[C@@H]1CCCCN1C(=O)[C@@H](CC(=O)N1CCOCC1)NS(=O)(=O)Cc1ccccc1 [Compound 2.14]

target: T5, Human Activated Protein C (h aPC) (Homo sapiens, UniProt P04070); assay: Inhibition of human activated protein C (reference enzyme); type: biochemical; settings: Pefachrome PCa substrate
T5 construct: purchased Enzyme Research Laboratories
T5 sequence (P04070 212-450 limits assumed): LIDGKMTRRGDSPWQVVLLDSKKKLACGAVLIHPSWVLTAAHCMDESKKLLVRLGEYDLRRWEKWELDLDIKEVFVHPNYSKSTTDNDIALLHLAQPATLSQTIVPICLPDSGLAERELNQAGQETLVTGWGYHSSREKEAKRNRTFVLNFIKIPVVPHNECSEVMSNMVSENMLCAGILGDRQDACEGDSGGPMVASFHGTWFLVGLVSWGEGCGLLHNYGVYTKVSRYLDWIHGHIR
T5 sequence (P04070 43-197 partner limits assumed): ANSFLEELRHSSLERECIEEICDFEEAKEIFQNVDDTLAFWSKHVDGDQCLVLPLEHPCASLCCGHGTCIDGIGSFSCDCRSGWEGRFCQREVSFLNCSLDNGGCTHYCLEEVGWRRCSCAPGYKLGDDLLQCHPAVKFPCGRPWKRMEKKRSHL
Method: as §1, §2, §3

Ki | SMILES
6.7 µM | N[C@H]1C[C@@H](C(=O)NCc2cc(Cl)ccc2-n2cnnn2)N(C(=O)[C@@H](CCC(=O)N2CCOCC2)NS(=O)(=O)Cc2ccccc2)C1 [Compound 2.23]
> 20 µM | NCc1ccc(Cl)cc1CNC(=O)[C@@H]1CCCCN1C(=O)[C@@H](CC(=O)N1CCOCC1)NS(=O)(=O)Cc1ccccc1 [Compound 2.14]

target: T6, human Factor Xa (Homo sapiens, UniProt P00742); assay: Inhibition constants for human factor Xa, chromogenic substrate assay; type: biochemical; settings: 25° C., Pefachrome FXa substrate, average of at least three determinations; read-out: Ki h FXa
T6 construct: human Factor Xa from Enzyme Research Laboratories; purchased Enzyme Research Laboratories
T6 sequence (P00742 235-488 limits assumed): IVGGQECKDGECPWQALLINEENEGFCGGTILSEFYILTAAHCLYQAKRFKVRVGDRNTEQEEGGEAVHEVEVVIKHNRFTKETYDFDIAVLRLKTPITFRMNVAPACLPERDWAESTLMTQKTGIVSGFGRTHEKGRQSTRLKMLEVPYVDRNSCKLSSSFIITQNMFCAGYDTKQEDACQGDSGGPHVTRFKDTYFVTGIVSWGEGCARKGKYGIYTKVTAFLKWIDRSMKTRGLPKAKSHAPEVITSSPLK
T6 sequence (P00742 41-179 partner limits assumed): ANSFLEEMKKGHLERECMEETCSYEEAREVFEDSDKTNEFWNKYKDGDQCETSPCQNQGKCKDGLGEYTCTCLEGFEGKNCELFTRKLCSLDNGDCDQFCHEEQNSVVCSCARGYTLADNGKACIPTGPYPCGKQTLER
Method: as §1, §4, §2

Ki | SMILES
0.00032 µM | N[C@H]1C[C@@H](C(=O)NCc2cc(Cl)ccc2-n2cnnn2)N(C(=O)[C@@H](CCC(=O)N2CCOCC2)NS(=O)(=O)Cc2ccccc2)C1 [Compound 2.23]
0.0083 µM | NCc1ccc(Cl)cc1CNC(=O)[C@@H]1CCCCN1C(=O)[C@@H](CC(=O)N1CCOCC1)NS(=O)(=O)Cc1ccccc1 [Compound 2.14]

target: T7, Subcomponent "r" of Human Complement Component 1 (h C1r) (Homo sapiens, UniProt P00736); assay: Inhibition of human C1r (reference enzyme); type: biochemical; settings: S-2314 substrate; read-out: Ki h Clr
T7 construct: purchased Calbiochem
T7 sequence (P00736 464-705 limits assumed): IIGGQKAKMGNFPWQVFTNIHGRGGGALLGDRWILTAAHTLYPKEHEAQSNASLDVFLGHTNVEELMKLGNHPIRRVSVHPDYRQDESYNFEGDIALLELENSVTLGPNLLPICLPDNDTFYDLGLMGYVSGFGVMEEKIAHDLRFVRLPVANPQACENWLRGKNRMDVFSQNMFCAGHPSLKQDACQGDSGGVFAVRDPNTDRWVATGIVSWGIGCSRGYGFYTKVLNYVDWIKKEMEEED
T7 sequence (P00736 18-463 partner limits assumed): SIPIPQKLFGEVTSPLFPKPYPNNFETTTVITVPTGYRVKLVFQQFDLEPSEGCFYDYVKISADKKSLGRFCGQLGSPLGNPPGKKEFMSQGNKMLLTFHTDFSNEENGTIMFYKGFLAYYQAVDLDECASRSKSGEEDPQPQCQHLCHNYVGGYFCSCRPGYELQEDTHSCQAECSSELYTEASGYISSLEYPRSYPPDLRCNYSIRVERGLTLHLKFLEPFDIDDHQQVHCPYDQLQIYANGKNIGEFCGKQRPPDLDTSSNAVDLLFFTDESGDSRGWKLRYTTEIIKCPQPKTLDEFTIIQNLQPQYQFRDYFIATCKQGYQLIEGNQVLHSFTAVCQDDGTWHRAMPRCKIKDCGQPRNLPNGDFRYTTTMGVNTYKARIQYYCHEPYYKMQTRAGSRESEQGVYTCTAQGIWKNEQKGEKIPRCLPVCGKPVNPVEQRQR
Method: as §1, §2, §3

Ki | SMILES
> 40 µM | N[C@H]1C[C@@H](C(=O)NCc2cc(Cl)ccc2-n2cnnn2)N(C(=O)[C@@H](CCC(=O)N2CCOCC2)NS(=O)(=O)Cc2ccccc2)C1 [Compound 2.23]
> 50 µM | NCc1ccc(Cl)cc1CNC(=O)[C@@H]1CCCCN1C(=O)[C@@H](CC(=O)N1CCOCC1)NS(=O)(=O)Cc1ccccc1 [Compound 2.14]

target: T8, Subcomponent "s" of Human Complement Component 1 (h C1s) (Homo sapiens, UniProt P09871); assay: Inhibition of human C1s (reference enzyme); type: biochemical; settings: S-2314 substrate; read-out: Ki h Cls
T8 construct: purchased Calbiochem
T8 sequence (P09871 438-688 limits assumed): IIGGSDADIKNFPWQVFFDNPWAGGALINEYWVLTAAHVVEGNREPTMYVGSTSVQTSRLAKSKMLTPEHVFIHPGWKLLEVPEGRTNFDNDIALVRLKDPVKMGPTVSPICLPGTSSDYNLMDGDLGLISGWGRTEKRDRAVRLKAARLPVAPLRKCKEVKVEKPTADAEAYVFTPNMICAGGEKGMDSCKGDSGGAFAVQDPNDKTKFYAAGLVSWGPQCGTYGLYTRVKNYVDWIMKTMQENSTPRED
T8 sequence (P09871 16-437 partner limits assumed): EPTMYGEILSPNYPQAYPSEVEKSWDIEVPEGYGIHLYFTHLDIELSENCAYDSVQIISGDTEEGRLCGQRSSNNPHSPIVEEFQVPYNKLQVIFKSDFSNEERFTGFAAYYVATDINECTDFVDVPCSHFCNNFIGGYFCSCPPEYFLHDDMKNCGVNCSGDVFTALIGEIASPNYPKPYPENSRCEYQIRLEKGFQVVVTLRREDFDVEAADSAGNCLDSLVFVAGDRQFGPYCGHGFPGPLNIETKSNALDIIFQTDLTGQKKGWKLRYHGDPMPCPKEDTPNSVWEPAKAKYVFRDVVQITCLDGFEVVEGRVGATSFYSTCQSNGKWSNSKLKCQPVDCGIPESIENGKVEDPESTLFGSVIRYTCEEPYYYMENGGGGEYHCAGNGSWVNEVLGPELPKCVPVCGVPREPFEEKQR
Method: as §1, §2, §3

Ki | SMILES
> 70 µM | N[C@H]1C[C@@H](C(=O)NCc2cc(Cl)ccc2-n2cnnn2)N(C(=O)[C@@H](CCC(=O)N2CCOCC2)NS(=O)(=O)Cc2ccccc2)C1 [Compound 2.23]
> 50 µM | NCc1ccc(Cl)cc1CNC(=O)[C@@H]1CCCCN1C(=O)[C@@H](CC(=O)N1CCOCC1)NS(=O)(=O)Cc1ccccc1 [Compound 2.14]

target: T9, Human urokinase type plasminogen activator (h u-PA) (Homo sapiens, UniProt P00749); assay: Inhibition of human urokinase type plasminogen activator (reference enzyme); type: biochemical; settings: H-Glu-Gly-Arg-pNA substrate
T9 construct: purchased MEDAC GmbH Urokinase HS medac
Method: as §1, §2, §3

Ki | SMILES
> 100 µM | N[C@H]1C[C@@H](C(=O)NCc2cc(Cl)ccc2-n2cnnn2)N(C(=O)[C@@H](CCC(=O)N2CCOCC2)NS(=O)(=O)Cc2ccccc2)C1 [Compound 2.23]
> 50 µM | NCc1ccc(Cl)cc1CNC(=O)[C@@H]1CCCCN1C(=O)[C@@H](CC(=O)N1CCOCC1)NS(=O)(=O)Cc1ccccc1 [Compound 2.14]

target: T10, Human urinary kallikrein (h uKK) (Homo sapiens, UniProt P06870); assay: Inhibition of human urinary kallikrein (reference enzyme); type: biochemical; settings: S-2266 substrate
T10 construct: purchased Lee Biosolutions
T10 sequence (P06870 25-262): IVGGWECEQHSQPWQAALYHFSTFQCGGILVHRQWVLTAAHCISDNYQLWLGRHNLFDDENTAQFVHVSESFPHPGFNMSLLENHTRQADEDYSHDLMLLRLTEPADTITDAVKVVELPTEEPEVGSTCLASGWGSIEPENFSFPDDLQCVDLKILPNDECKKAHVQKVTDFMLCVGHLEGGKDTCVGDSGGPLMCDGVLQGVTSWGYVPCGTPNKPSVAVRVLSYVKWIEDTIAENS
Method: as §1, §2, §3

Ki | SMILES
> 50 µM | N[C@H]1C[C@@H](C(=O)NCc2cc(Cl)ccc2-n2cnnn2)N(C(=O)[C@@H](CCC(=O)N2CCOCC2)NS(=O)(=O)Cc2ccccc2)C1 [Compound 2.23]
> 20 µM | NCc1ccc(Cl)cc1CNC(=O)[C@@H]1CCCCN1C(=O)[C@@H](CC(=O)N1CCOCC1)NS(=O)(=O)Cc1ccccc1 [Compound 2.14]
